# Data published in patent publication US20240382521A1, “METHODS OF ENGINEERING IMMUNE CELLS HAVING REDUCED FRATRICIDAL ACTIVITY” (Baylor College of Medicine, priority 2021, published 2024).
# Experiments:
# [1] = system: CD5 CAR T-cells; experiment: Expansion of CD5 CAR T-cells in the presence of kinase inhibitors; type: cell-based, human; details: for frequencies of minimally differentiated, naïve-like T-cells (differentiation of CD5 CAR T-cells): inhibitor added on day of viral transduction, replenished every 2-3 days, vs control CD5 CAR T-cells expanded in the absence of inhibitors, FIG. 1A
# Text: Pazopanib and gefitinib had less impact on the differentiation of CD5 CAR T-cells. […] No such effect was observed upon expansion of control non-transduced T-cells in the presence of the same inhibitors, indicating the effect is CAR-specific.
# [2] = system: CYP3A; details: cited from earlier work
SMILES,"frequencies of minimally differentiated, naïve-like T-cells (differentiation of CD5 CAR T-cells) [1]",metabolism in the liver by the CYP3A [2],"CD5 CAR T-cell expansion ([1]; in presence of inhibitor, compared with non-transduced control T-cells, FIG. 1B)"
COc1cc2ncnc(Nc3ccc(F)c(Cl)c3)c2cc1OCCCN1CCOCC1 [gefitinib],less impact,,
Cc1nc(Nc2ncc(C(=O)Nc3c(C)cccc3Cl)s2)cc(N2CCN(CCO)CC2)n1 [dasatinib],,extensive metabolism,
CC(C)(C)n1nc(-c2ccc(Cl)cc2)c2c(N)ncnc21 [pp2],higher frequencies,,promoted robust CD5 CAR T-cell expansion
